# Literature values in US11224632B2 (priority 2016, dated 2022).
# Target: N-type calcium channel (Homo sapiens, UniProt Q00975)
# Conditions: in vivo; cited from earlier work
# Sequence of N-type calcium channel (Q00975 whole entry, looked up): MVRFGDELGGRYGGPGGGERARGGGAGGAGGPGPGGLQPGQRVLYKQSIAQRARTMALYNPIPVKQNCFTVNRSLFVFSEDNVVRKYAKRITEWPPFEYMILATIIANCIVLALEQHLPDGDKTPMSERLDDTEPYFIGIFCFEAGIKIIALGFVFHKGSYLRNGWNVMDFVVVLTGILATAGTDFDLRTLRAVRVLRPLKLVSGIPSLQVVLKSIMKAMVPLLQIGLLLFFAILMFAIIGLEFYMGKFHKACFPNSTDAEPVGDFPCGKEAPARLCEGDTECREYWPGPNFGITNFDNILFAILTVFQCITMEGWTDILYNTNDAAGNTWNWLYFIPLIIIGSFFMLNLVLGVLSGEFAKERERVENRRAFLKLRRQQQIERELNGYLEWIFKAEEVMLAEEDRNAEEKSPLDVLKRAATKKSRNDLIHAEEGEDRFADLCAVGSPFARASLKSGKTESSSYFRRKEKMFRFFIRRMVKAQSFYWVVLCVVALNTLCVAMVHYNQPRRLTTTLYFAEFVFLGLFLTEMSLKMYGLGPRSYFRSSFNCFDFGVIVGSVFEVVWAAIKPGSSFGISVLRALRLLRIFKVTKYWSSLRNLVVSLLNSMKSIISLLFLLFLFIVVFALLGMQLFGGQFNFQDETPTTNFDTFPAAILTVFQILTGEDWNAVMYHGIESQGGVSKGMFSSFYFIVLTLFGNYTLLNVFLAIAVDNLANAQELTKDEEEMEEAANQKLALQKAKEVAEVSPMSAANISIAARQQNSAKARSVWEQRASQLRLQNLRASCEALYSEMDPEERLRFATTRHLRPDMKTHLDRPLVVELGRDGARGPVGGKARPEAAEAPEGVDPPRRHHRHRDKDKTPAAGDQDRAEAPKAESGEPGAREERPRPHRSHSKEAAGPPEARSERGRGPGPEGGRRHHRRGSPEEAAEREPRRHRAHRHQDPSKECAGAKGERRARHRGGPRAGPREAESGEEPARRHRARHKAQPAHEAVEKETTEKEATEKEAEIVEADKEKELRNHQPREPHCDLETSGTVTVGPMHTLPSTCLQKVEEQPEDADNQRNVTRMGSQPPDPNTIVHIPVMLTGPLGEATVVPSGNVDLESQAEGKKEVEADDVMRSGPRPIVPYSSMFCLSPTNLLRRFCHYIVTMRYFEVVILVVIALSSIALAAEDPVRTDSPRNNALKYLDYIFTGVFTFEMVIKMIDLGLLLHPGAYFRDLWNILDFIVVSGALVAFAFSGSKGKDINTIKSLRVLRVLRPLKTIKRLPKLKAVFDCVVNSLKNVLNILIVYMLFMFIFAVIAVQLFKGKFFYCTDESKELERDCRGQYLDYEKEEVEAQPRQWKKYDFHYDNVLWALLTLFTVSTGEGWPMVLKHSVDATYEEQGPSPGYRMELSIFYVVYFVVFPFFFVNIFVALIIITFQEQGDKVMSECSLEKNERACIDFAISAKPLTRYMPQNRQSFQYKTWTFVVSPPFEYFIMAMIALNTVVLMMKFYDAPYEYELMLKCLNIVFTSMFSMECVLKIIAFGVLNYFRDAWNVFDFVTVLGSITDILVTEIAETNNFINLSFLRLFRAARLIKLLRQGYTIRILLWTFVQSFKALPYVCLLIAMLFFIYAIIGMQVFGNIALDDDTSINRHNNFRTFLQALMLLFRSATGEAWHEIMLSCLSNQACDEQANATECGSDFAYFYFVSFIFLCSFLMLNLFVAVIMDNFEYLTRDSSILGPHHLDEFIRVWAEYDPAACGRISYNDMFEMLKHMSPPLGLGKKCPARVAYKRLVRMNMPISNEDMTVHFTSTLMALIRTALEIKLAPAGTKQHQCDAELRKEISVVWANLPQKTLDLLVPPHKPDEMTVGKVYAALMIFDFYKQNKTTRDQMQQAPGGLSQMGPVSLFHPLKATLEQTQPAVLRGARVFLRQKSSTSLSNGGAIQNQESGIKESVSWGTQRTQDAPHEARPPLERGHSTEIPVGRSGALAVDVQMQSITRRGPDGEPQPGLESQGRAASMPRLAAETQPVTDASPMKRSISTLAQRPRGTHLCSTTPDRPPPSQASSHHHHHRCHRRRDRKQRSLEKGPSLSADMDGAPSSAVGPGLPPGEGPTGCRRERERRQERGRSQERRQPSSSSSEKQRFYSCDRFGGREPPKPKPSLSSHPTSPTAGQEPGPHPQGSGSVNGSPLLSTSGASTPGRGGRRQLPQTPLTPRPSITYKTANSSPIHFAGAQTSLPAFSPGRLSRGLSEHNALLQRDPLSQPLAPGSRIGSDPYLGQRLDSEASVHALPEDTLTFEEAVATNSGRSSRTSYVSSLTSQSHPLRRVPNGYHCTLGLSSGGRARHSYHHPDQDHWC
smiles,measurement,value
CSCC[C@@H]1NC(=O)[C@H](CC(C)C)NC(=O)[C@H](CCCNC(=N)N)NC(=O)[C@H](CO)NC(=O)[C@@H]2CSSC[C@@H]3NC(=O)[C@H](CO)NC(=O)CNC(=O)[C@H]([C@@H](C)O)NC(=O)[C@H](CSSC[C@H](N)C(=O)N[C@@H](CCCCN)C(=O)NCC(=O)N[C@@H](CCCCN)C(=O)NCC(=O)N[C@@H](C)C(=O)N[C@@H](CCCCN)C(=O)N2)NC(=O)[C@H](CSSC[C@@H](C(N)=O)NC(=O)[C@H](CCCCN)NC(=O)CNC(=O)[C@H](CO)NC(=O)[C@H](CCCNC(=N)N)NC3=O)NC(=O)[C@H](CC(=O)O)NC(=O)[C@H](Cc2ccc(O)cc2)NC1=O [ziconotide],patients with severe CNS adverse effects,88%
